{"source": "paper PMC10462762", "about": "“Chemoenzymatic synthesis of genetically-encoded multivalent liquid N-glycan arrays” (Nature Communications, 2023)", "molecular_target": "T1, α-(2→6)-sialyltransferase from Photobacterium damselae (Pd26ST) (Photobacterium damselae, UniProt O66375)", "T1 construct": "gene bst; recombinant, expressed and purified as in supplementary information", "T1 sequence (O66375 16-675)": "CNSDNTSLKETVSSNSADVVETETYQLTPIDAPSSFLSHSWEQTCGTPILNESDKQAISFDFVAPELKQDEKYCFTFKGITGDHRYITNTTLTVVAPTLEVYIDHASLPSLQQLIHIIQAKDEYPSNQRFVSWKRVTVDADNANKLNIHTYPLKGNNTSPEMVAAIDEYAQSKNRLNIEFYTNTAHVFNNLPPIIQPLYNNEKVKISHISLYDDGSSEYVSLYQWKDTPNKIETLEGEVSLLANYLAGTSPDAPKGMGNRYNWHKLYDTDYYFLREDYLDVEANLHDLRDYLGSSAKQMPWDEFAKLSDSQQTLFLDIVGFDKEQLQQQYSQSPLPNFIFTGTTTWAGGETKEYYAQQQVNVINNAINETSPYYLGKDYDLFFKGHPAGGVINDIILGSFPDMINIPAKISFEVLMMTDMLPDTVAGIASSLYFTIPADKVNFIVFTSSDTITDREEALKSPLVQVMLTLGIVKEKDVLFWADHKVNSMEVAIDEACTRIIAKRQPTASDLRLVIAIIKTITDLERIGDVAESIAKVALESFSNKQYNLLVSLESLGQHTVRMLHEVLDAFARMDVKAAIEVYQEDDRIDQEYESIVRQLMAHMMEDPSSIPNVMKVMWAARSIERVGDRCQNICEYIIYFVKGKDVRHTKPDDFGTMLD", "assay": "sialylation of phage-displayed LacNAc / Lac, MALDI-TOF MS", "format": "biochemical", "settings": "donor substrate; acceptor LacNAc- and lactose-phage; 9 h", "data": [{"smiles": "CC(=O)N[C@H]1[C@H]([C@H](O)[C@H](O)CO)O[C@](OP(=O)(O)OC[C@H]2O[C@@H](n3ccc(N)nc3=O)[C@H](O)[C@@H]2O)(C(=O)O)C[C@@H]1O", "note": "[CMP-Neu5Ac]", "values": [{"measurement": "sialylation of phage-displayed LacNAc / Lac, MALDI-TOF MS", "value": "(Pd26ST) and cytidine-5’-monophosphate-N-acetylneuraminic acid (CMP-Neu5Ac)"}]}]}
